Measured values taken from patent US20210177814A1, “USE OF GUANABENZ OR DERIVATES THEREOF FOR THE TREATMENT OF TYPE I IFN-DEPENDENT PATHOLOGIES” (INSERM (Institut National de la Santé et de la Recherche …, priority 2018, published 2021).

Experiments:
endosomal TLRs = assay: TMPD (pristane) + CpG ODN induced SLE model; assay type: in vivo, mouse
Description: At day 7 mice were injected with CpG ODN 1585 (50 μg/20 g). Blood was collected once a month to dose the circulating autoantibodies level. Mice were sacrificed at week 24 after disease induction. (A) Flow cytometry analysis of peritoneum exudate cells populations (PEC) at day 14. […] Statistical significance was assigned using two tailed Student's t test (* p<0.05). (C) Level of circulating anti-RNA antibodies (normalized to control mice), anti-nuclear antibodies (arbitrary units), presence of lipogranulomas in the peritoneal cavity (arbitrary score) and glomerulopathy (histological score blindly determined by an anatomopathologist) at week 24. Statistical significance was assigned by a one-way ANOVA, followed by Tukey range test (* p<0.05;** p<0.005; ***p<0.0005.). N.S., not significant. n values in the figure indicate the number of mice.
Wild type female mice C57BL/6 of 6 weeks of age were injected i.p. with 500 μL of TMPD (Sigma Aldrich) or PBS. From day 1 to day 13 mice were injected i.p. every 2 days with GBZ or PBS/DMSO 2 mg/kg. Mice were injected i.p. at day 7 with ODN 1585 or PBS 50 μg/20 g of mouse. Mice were sacrificed at day 14 or after 6 months. At day 14, peritoneal exudate cells (PEC) were taken for flow cytometry analysis. After 6 months kidneys were taken for immunohistochemistry. During 6 months, blood serum collection was effectuated once a month, from month 2 after the injection of TMPD up to one week before the animal sacrifice. Serum was used to evaluate the concentration of circulating autoantibodies. Anti-RNA ELISA. Evaluation of autoantibodies against RNA was performed by coating ELISA plates with 50 μl/well of 5 μg/ml mouse RNA or DNA in PBS and incubated overnight at 4° C. Next day, the plates were incubated with 1:50 or 1:100 diluted serum samples in working solution (PBS+0.05% Tween20+1% BSA), and the assay was developed with HRP-labeled goat anti-mouse IgG (Southern Biotech).
Mouse kidney and liver were fixed in 10% buffered formalin for 24 h, then the tissues were dehydrated and embedded in paraffin. Tissue sections of 3.5 μm were cut using the microtom Leica RM2245. Hematoxylin-eosin staining was effectuated automatically with Leica autostainer XL. Finally, the slides were mounted with entellan and kept at room temperature. Biopsies were analyzed by an anatomopathologist and the clinical score was assigned in a blinded way. Pictures were taken with Nikon Eclipse.

[1] = system: dendritic cells (TLR stimulation); assay: IFN-β and IL-6 production by WT and GADD34ΔC/ΔC DCs stimulated with TLR ligands; assay type: cell-based, mouse; details: GBZ 50 μM
Description: BM-derived DCs were differentiated in vitro from the bone marrow of 6-8 weeks old male mice, using either FLT3 ligand or GM-CSF. Flt3L-DCs were used for experiments between days 6 and 7. Flt3L was produced using B16-Flt3L hybridoma cells. Bone marrow progenitors were plated at 1.5 10^6 cells/ml, 4 ml/well in 6 well plate, and cultivated with RPMI (GIBCO), 10% FCS (Sigma Aldrich), 100 units/ml penicillin and 100 μg/ml streptomycin (GIBCO), 50 μM b-mercaptoethanol (VWR) and Flt3L. For sorted Flt3L-DCs, cells were gently harvested at day 7 with cold PBS 2% FCS, centrifuged 1200 rpm 5 min at 4° C., counted and stained with for 30 mins at 4° C. Cells were sorted with the FACS ARIASorp. Cells were kept on ice all the time. After sorting, cells were resuspended in supplemented Flt3L-DCs medium at the concentration of 0.2 0.10^6 cells/well and plated at in a 96 wells plate U bottom. GM-CSF DCs were produced and used for experiments at day 6 of differentiation.
Splenocytes were dissociated injecting Liberase TL, followed by 25 min incubation at 37° C. Cells were washed using MACS buffer (PBS 1X+1% FBS+2 mM EDTA) and passed in a cell strainer 70 μm, then centrifuged 5 min at 450 RCF, 4° C. Red blood cells were lysed using the commercial buffer from eBioscience. Dendritic cells were purified using CD11c^+ positive selection kit from Miltenyi. Splenic DCs were then resuspended in the same medium as for Flt3L-DCs at 1.10^6 cells/ml and plated in a 12 wells plate, 2 ml×well. B lymphocytes were purified using B cell isolation kit, a negative selection kit from Miltenyi. B cells were then resuspended in a medium composed of RPMI (GIBCO), 10% FCS (Sigma Aldrich), lx glutamine, 1× non-essential amino acids, 10 mM HEPES (all the previous from GIBCO), 50 μM b-mercaptoethanol (VWR). Cells were plated at 1×10^6 cells/well in 96 well plate, flat.
Mouse IFN-β quantification in culture supernatant was performed using the Mouse Interferon Beta ELISA kit (PBL InterferonSource); mouse IL-6, TNFα, IL-10, human TNFα and human IFNα were quantified using ELISA kit (eBioscience) respectively, according to manufacturer instructions.
We have previously shown that GM-CSF-induced bone-marrow-derived DCs from GADD34^ΔC/ΔC mouse display limited capacity to express IFNβ and IL-6 in response to the dsRNA mimic polyriboinosinic:polyribocytidylic acid (poly(I:C)). We investigated whether this observation could be extended to other DC subsets and TLR ligands. WT and GADD34^ΔC/ΔC DC isolated directly from spleen or generated in vitro from bone-marrow progenitors, using either Flt3L- or GM-CSF-induced differentiation, were submitted to stimulation with LPS, poly(I:C) or CpG ODN and analyzed for IFN-β and IL-6 production (data not shown). […]

[2] = 22 weeks after TMPD injection, vs TMPD and CpG only
[3] = GADD34ΔC/ΔC Flt3L-DCs, CpG ODN stimulation

`NC(N)=N/N=C/c1c(Cl)cccc1Cl` [GBZ, 2-(2,6-dichlorobenzylidene)-hydrazinecarboximidamide] was tested, and the “circulating anti-RNA immunoglobulins titer” value (endosomal TLRs; [2]) was “substantially lower”, the “circulating anti-nuclear immunoglobulins titer” value (endosomal TLRs; [2]) was “substantially lower” and the “Ig-complexes deposits in the kidneys (glomerulonephritis)” value (endosomal TLRs; C57BL/6, control vs GBZ-treated animals) was “unable to induce overall sufficient glomerulonephritis to observe significant differences”. The “lipogranulomas in the peritoneal cavity” value (endosomal TLRs; GBZ-treated vs TMPD and CpG only) was “considerably smaller numbers”, the “transcriptional up-regulation of TNF-α, ISG 15 and CH25H in PECs (qPCR)” value (endosomal TLRs; TMPD+CpG injected mice, recurrent GBZ injections) was “strongly inhibited” and the “immune cells migration into or from the peritoneal cavity (PEC flow cytometry)” value (endosomal TLRs; day 14, GBZ 2 mg/kg i.p. every 2 days, day 1 to 13) was “did not prevent”. For the same compound, the IFN-β production [1, 3] was “incapable of producing”, the IL-6 production [1, 3] was “incapable of producing” and the “IFN-β production in response to TLR9 stimulation compared with Gadd34 genetic inactivation” value ([1]; data not shown) was “far stronger capacity to inhibit”. For the same compound, the “IL-6 production compared with Gadd34 genetic inactivation” value ([1]; data not shown) was “superimposable to GADD34 deficiency”.
